The source of these data is patent publication US10759766B2, “Certain chemical entities, compositions, and methods” (NeuPharma, Inc., priority 2011, dated 2020).

For assay [1], the system named is A375 cells. The experiment in a line: Inhibition of cancer cell growth, MTT assay, A375. The note with it: Homo sapiens, A-375, 72 h exposure. The class given is cell-based. How it is done:
(§1) Inhibition of cell growth by compounds was measured using MTT assay (Mosmann, T., Journal of Immunological Methods, 1983, 65, 55-63). Tumor cell lines were purchased from ATCC (American Type Culture Collection, Manassas, Va.). All cell lines were maintained in RPMI 1640 (Hyclone) supplemented with 10% fetal bovine serum (FBS, Hyclone), glutamine (2 mM, Hyclone), and antibiotics (penicillin 100 U/mL and streptomycin 50 μg/mL) at 37° C. in a humidified atmosphere of 5% CO2 in air. Taxol (as a positive control, Sigma) and compounds were dissolved in DMSO (Sigma), and the final concentration of DMSO in the medium was 1%. Tumor cells were plated in 96-well plates at densities of about 4000 cells/well of a 96-well plate and allowed to adhere/grow for 24 h. They were then treated with various concentrations of drug for 72 h. 3-(4,5-Dimethylthiazol-2-yl)-2,5-diphenyltetrazolium bromide (MTT, Sigma) was used to determine the number of viable cells at the time of compound addition and the number of cells remaining after 72 h compound exposure. The number of cells remaining after 72 h was compared to the number of viable cells at the time of compound addition by measuring the absorbance at 570 nm, allowing for the calculation of growth inhibition.
(§2) All concentrations of compounds were tested in triplicate and controls were averaged over 4 wells. IC50 was calculated by plotting the concentration of compound vs the percentage of inhibition in treated wells using GraphPad Prism 5. […] The scale utilized in Table 6 is as follows: +++ less than 1000 nM; ++ between 1000 nM and 5000 nM; and + greater than 5000 nM. The scale utilized in Table 7 is as follows: +++ less than 2000 nM; ++ between 2000 nM and 5000 nM; and + greater than 5000 nM.

For assay [2], the target named is KDR (VEGFR2) (Homo sapiens (Human), UniProt P35968). The experiment in a line: Z′-LYTE kinase inhibition assay (Invitrogen), KDR. The assay is classed as biochemical. The note with it: Z′-LYTE method; for inhibition at 1 µM: 1 μM compound, read-out: % inhibition at 1 μM against KDR; for IC50: read-out: IC50 against KDR. The procedure: (§3) Inhibitory activities Inhibitory activities of compounds against BRAF, and BRAF V600E were measured by Invitrogen using Z′-LYTE® Method as briefly described in the following. 4× Test compounds are dissolved in 1% DMSO. […] ATP solutions are diluted to a 4×ATP working concentration in Kinase Buffer (50 mM HEPES pH 7.5, 0.01% BRIJ-35, 10 mM MgCl2, 1 mM EGTA). Reaction started by 30-second shaking of mixture consisting of 2.5 μL 4× test compound, […] and 2.5 μL 4×ATP Solution on Bar-coded Corning, low volume NBS, black 384-well plate (Corning Cat. #3676). Then the mixture was incubated for 60-minute at room temperature for the kinase reaction, followed by addition of 5 μL of a 1:1024 dilution of development reagent A and 30-second plate shake. The mixture was then incubated for another 60-minute at room temperature for development reaction. Fluorescence was read by plate reader. IC50 was calculated by plotting the concentration of compound vs the percentage of inhibition in treated wells using GraphPad Prism 5.
Inhibitory activities of compounds against KDR (VEGFR2) were also measured by Invitrogen using Z′-LYTE® Method as described above with the following modification. The 2× KDR (VEGFR2)/Tyr 01 mixture is prepared in 50 mM HEPES pH 7.5, 0.01% BRIJ-35, 10 mM MgCl2, 1 mM EGTA. The final 10 μL Kinase Reaction consists of 0.5-11.7 ng KDR (VEGFR2) and 2 μM Tyr 01 in 50 mM HEPES pH 7.5, 0.01% BRIJ-35, 10 mM MgCl2, 1 mM EGTA. After the 1 hour Kinase Reaction incubation, 5 μL of a 1:256 dilution of Development Reagent B is added.
The scale utilized in Table 5 is as follows: +++ less than 100 nM; and ++ greater than 100 nM

Assay [3] deals with A549 cells. The experiment in a line: Inhibition of cancer cell growth, MTT assay, A549. The note with it: Homo sapiens, A549, 72 h exposure. The assay is classed as cell-based. How it is done: as §1, §2
Assay [4] has as its target BRAF V600E (Homo sapiens (Human), UniProt P15056, V600E). The experiment in a line: Z′-LYTE kinase inhibition assay (Invitrogen), BRAF V600E. The assay is classed as biochemical. The note with it: Z′-LYTE method; for inhibition at 1 µM: 1 μM compound, read-out: % inhibition at 1 μM against BRAF V600E; for IC50: read-out: IC50 against BRAF V600E. How it is done: as §3
The scale utilized in Table 3 is as follows: +++ less than 100 nM; and ++ greater than 100 nM.

Sequence of BRAF V600E (P15056 whole entry V600E): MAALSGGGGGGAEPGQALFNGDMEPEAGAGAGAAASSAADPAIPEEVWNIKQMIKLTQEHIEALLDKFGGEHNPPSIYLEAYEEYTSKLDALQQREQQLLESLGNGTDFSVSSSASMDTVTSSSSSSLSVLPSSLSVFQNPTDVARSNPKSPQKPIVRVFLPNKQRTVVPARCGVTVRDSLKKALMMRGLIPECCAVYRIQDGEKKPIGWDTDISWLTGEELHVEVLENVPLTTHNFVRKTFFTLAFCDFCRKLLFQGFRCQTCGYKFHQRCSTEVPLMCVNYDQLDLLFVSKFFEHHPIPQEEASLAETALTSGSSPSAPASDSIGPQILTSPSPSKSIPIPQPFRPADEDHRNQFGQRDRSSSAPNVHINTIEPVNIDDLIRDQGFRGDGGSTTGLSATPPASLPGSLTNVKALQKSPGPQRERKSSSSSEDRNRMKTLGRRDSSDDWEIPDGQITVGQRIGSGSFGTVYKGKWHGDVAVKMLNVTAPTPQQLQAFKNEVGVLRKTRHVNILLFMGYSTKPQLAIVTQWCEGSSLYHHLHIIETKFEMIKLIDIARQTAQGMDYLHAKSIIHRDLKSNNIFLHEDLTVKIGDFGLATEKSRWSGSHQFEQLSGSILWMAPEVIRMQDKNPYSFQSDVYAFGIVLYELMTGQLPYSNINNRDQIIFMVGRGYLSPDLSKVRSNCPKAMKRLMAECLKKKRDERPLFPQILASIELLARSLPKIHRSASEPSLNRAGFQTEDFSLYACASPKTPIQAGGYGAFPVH
Sequence of KDR (VEGFR2) (P35968 20-1356): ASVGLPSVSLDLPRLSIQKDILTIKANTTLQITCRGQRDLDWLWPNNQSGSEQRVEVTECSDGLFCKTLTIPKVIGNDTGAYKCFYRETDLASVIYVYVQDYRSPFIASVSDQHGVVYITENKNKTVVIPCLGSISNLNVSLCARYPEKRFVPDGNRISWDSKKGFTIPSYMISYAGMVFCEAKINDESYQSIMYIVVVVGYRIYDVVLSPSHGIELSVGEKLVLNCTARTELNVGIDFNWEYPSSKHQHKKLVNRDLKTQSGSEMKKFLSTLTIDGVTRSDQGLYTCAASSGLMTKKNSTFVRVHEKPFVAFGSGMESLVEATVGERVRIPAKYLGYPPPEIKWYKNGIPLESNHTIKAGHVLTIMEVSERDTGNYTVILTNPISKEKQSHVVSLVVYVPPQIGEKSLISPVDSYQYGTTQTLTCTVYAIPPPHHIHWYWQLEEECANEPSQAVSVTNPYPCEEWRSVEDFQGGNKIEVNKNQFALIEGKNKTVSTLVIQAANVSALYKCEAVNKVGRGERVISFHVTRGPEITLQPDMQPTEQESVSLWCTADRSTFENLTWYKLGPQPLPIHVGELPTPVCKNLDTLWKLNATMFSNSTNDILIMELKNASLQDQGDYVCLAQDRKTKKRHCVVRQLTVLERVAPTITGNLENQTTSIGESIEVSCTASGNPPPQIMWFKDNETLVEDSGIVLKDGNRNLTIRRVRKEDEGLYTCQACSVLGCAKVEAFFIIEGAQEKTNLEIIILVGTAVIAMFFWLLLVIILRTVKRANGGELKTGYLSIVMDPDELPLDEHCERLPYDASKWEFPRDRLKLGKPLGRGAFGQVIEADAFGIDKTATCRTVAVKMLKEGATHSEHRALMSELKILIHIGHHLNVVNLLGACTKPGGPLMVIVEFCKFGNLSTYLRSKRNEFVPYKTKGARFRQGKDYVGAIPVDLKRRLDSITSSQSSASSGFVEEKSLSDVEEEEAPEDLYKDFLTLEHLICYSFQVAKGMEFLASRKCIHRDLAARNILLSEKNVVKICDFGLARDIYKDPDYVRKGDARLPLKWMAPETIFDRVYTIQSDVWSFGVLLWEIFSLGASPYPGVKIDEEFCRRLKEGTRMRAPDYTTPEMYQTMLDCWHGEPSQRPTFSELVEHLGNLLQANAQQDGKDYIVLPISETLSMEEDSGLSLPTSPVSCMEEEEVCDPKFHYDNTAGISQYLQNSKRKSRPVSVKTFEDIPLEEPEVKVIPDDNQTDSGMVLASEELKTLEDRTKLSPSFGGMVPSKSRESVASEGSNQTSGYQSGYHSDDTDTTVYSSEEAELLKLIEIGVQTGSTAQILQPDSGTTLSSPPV

As a reminder, the IC50 is the concentration needed to halve the response being measured. A word on the inhibition: it is the percentage by which the read-out fell short of the control. For `O=C(Nc1cccc(C(F)(F)F)c1)Nc1ccc(F)c(C(=O)c2ccc3nccnc3c2)c1F` [Compound C010, 1-(2,4-difluoro-3-(quinoxaline-6-carbonyl)phenyl)-3-(3-(trifluoromethyl)phenyl)urea], the IC50 in assay [1] and in assay [3] was over 5 µM throughout. The values for the inhibition at 1 µM in assay [2] and in assay [4] were under 70% and 70 to 89%, respectively.

Take `O=C(Nc1cccc(F)c1)Nc1ccc(F)c(C(=O)c2ccc3nccnc3c2)c1F` [Compound C011, 1-(2,4-difluoro-3-(quinoxaline-6-carbonyl)phenyl)-3-(3-fluorophenyl)urea]: the IC50 in assay [1] and in assay [3] was over 5 µM each time. The inhibition at 1 µM in assay [2] was under 70%; in assay [4], 70 to 89%.

As to `O=C(Nc1ccc(Cl)c(C(F)(F)F)c1)Nc1ccc(F)c(C(=O)c2ccc3nccnc3c2)c1F` [Compound C012, 1-(4-chloro-3-(trifluoromethyl)phenyl)-3-(2,4-difluoro-3-(quinoxaline-6-carbonyl)phenyl)urea], the IC50 in assay [1] is 1 to 5 µM; in assay [3], under 2 µM. Besides, the inhibition at 1 µM in assay [2] and in assay [4] was under 70% throughout.

With `O=C(Nc1cccc(F)c1)Nc1ccc(F)c(C(=O)c2ccc3nccnc3c2)c1` [Compound C013, 1-(4-fluoro-3-(quinoxaline-6-carbonyl)phenyl)-3-(3-fluorophenyl)urea], the IC50 lay in the range of 1 to 5 µM in assay [1] and 2 to 5 µM in assay [3]. Further, the figures for the inhibition at 1 µM in assay [2] and in assay [4] were 70 to 89% and over 89%, respectively.

With `O=C(Nc1cccc(F)c1)Nc1cccc(C(=O)c2ccc3ncc(N4CCOCC4)nc3c2)c1` [Compound C016, 1-(3-fluorophenyl)-3-(3-(3-morpholinoquinoxaline-6-carbonyl)phenyl)urea], the IC50 is over 5 µM in assay [1], over 100 nM in assay [2], over 5 µM in assay [3] and under 100 nM in assay [4]. Further, the results for the inhibition at 1 µM in assay [2] and in assay [4] were 70 to 89% and over 89%, respectively.

With `O=C(Nc1cccc(F)c1)Nc1cccc(C(=O)c2ccc3ncc(N4CCCC4)nc3c2)c1` [Compound C019, 1-(3-fluorophenyl)-3-(3-(3-(pyrrolidin-1-yl)quinoxaline-6-carbonyl)phenyl)urea], the IC50 is over 5 µM in assay [1], under 100 nM in assay [2], over 5 µM in assay [3] and under 100 nM in assay [4]. Further, the inhibition at 1 µM in assay [2] and in assay [4] was over 89% throughout.

For the molecule `O=C(Nc1cccc(C(=O)c2ccc3ncc(N4CCCC4)nc3c2)c1)Nc1ccc(Cl)c(C(F)(F)F)c1` [Compound C021, 1-(4-chloro-3-(trifluoromethyl)phenyl)-3-(3-(3-(pyrrolidin-1-yl)quinoxaline-6-carbonyl)phenyl)urea], the IC50 in assay [1] was 1 to 5 µM; in assay [3], over 5 µM. In addition, the inhibition at 1 µM was over 89% in assay [2] and 70 to 89% in assay [4].

For `O=C(Nc1cc(F)cc(F)c1)Nc1cc(F)cc(C(=O)c2ccc3ncc(N4CCOCC4)nc3c2)c1` [Compound C093], the inhibition at 1 µM in assay [2] is under 70%; in assay [4] it was over 89%. The IC50 in assay [3] was in the range of 2 to 5 µM.

On to `O=C(Nc1cc(F)cc(F)c1)Nc1ccc(F)c(C(=O)c2ccc3ncc(N4CCOCC4)nc3c2)c1` [Compound C094, 1-(3,5-difluorophenyl)-3-(4-fluoro-3-(3-morphlinoquinoxaline-6-carbonyl)phenyl)urea], for which the inhibition at 1 µM in assay [2] was under 70%; in assay [4] it was over 89%. This molecule showed an IC50 in assay [3] of over 5 µM.

Turning to `O=C(Nc1ccc(F)cc1)Nc1cc(F)c(F)c(C(=O)c2ccc3ncc(N4CCOCC4)nc3c2)c1` [Compound C095, 1-(3,4-difluoro-5-(3-morpholinoquinoxaline-6-carbonyl)phenyl)-3-(4-fluorophenyl)urea], the inhibition at 1 µM in assay [2] is 70 to 89%; in assay [4] it was over 89%. Further, in assay [3], the IC50 is over 5 µM.

On to `O=C(Nc1ccc(F)c(F)c1)Nc1cc(F)c(F)c(C(=O)c2ccc3ncc(N4CCOCC4)nc3c2)c1` [Compound C096], for which the inhibition at 1 µM in assay [2] was under 70%; in assay [4], over 89%. The same molecule registered an IC50 in assay [3] of over 5 µM.

As to `O=C(Nc1cc(F)cc(F)c1)Nc1cc(F)c(F)c(C(=O)c2ccc3ncc(N4CCOCC4)nc3c2)c1` [Compound C097], the inhibition at 1 µM in assay [2] was under 70%; in assay [4], over 89%. Besides, the IC50 in assay [3] fell in the range of 2 to 5 µM.

Turning to `O=C(Nc1cccc(F)c1)Nc1cc(F)c(F)c(C(=O)c2ccc3ncc(N4CCNCC4)nc3c2)c1` [Compound C098], the inhibition at 1 µM in assay [2] is 70 to 89%; in assay [4] it was over 89%. This molecule also came in with an IC50 in assay [3] of 2 to 5 µM.

On to `O=C(Nc1ccc(F)cc1)Nc1cc(F)c(F)c(C(=O)c2ccc3ncc(N4CCNCC4)nc3c2)c1` [Compound C099, 1-(3,4-difluoro-5-(3-(piperazin-1-yl)quinoxaline-6-carbonyl)phenyl)-3-(4-fluorophenyl)urea], for which the results for the inhibition at 1 µM in assay [2] and in assay [4] were 70 to 89% and over 89%, respectively. Moreover, the IC50 was over 100 nM in assay [2] and under 2 µM in assay [3].

As to `O=C(Nc1cc(F)cc(F)c1)Nc1ccc(F)c(C(=O)c2ccc3ncc(N4CCNCC4)nc3c2)c1` [Compound C101, 1-(3,5-difluorophenyl)-3-(4-fluoro-3-(3-(piperazin-1-yl)quinoxaline-6-carbonyl)phenyl)urea], the inhibition at 1 µM in assay [2] was 70 to 89%; in assay [4] it was over 89%. In assay [3], this molecule yielded an IC50 of 2 to 5 µM.

As to `O=C(Nc1ccc(F)c(F)c1)Nc1ccc(F)c(C(=O)c2ccc3ncc(N4CCNCC4)nc3c2)c1` [Compound C102, 1-(3,4-difluorophenyl)-3-(4-fluoro-3-(3-(piperazin-1-yl)quinoxaline-6-carbonyl)phenyl)urea], the inhibition at 1 µM in assay [2] and in assay [4] was over 89% throughout. Moreover, the IC50 was under 100 nM in assay [2] and 2 to 5 µM in assay [3].

With `O=C(Nc1ccc(F)c(F)c1)Nc1cc(F)c(F)c(C(=O)c2ccc3ncc(N4CCNCC4)nc3c2)c1` [Compound C103, 1-(3,4-difluoro-5-(3-(piperazin-1-yl)quinoxaline-6-carbonyl)phenyl)-3-(3,4-difluorophenyl)urea], the IC50 in assay [3] lay in the range of 2 to 5 µM.

In assay [3], `O=C(Nc1cc(F)cc(F)c1)Nc1cc(F)c(F)c(C(=O)c2ccc3ncc(N4CCNCC4)nc3c2)c1` [Compound C104, 1-(3,4-difluoro-5-(3-(piperazin-1-yl)quinoxaline-6-carbonyl)phenyl)-3-(3,5-difluorophenyl)urea] returned an IC50 of over 5 µM.

As to `O=C(Nc1ccc(F)c(C(=O)c2ccc3nccnc3c2)c1F)c1cccc(C(F)(F)F)c1` [Compound C114, N-(2,4-difluoro-3-(quinoxaline-6-carbonyl)phenyl)-3-(trifluoromethyl)benzamide], the inhibition at 1 µM in assay [2] and in assay [4] was 70 to 89% each time. For the same molecule, in assay [3], the IC50 is over 5 µM.
